According to publication PMC11839907, “Deciphering the tight metabolite‐level regulation of glucose‐1‐phosphate adenylyltransferase (GlgC) for glycogen synthesis in cyanobacteria” (The Febs Journal, 2024):
Where two headings read alike, the source gives them in different places. Each block holds one compound with its values, some of them ahead of it.

Legend:
[1] = biological target: T1, GlgC (Synechocystis sp. PCC 6803, UniProt P52415); assay: continuous GlgC-GlgA1 / pyruvate kinase / LDH coupled assay, A340; type: biochemical
T1 construct: shorter variant lacking first 10 residues of P52414, starts VKRVLAIILGG (primer 3); N-terminal His-tag (pET28a), E. coli Rosetta-gami (DE3); active as tetramer
T1 sequence (P52415 11-439): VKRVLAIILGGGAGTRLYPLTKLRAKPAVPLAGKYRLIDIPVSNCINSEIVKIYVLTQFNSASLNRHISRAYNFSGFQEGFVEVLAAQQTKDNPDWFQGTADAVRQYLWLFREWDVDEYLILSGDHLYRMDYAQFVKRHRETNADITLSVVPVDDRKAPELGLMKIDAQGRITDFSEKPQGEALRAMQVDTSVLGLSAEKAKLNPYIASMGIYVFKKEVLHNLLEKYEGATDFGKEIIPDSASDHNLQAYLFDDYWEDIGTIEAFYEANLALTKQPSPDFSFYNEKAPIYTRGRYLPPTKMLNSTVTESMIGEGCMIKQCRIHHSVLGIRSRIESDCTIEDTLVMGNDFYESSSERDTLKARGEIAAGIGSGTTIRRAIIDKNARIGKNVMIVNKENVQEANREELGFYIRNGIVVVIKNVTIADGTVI

[2] = biological target: T1, GlgC; assay: as above; type: biochemical; details: read-out: 3-PGA (mM) / 0.00

- EC50 [1]: 430 µM
SMILES: O=C(O)[C@H](O)COP(=O)(O)O [3-PGA]

- EC50 ([1]; activator, no 3-PGA, 0.25 mM Glc-1P, 2 mM ATP, 12 mM MgCl2, pH 8.0, 30 °C): 2300 µM
SMILES: O=P(O)(O)OC[C@H]1OC(O)(CO)[C@@H](O)[C@@H]1O (stereo partly drawn) [Fru-6P]

- IC50 [2]: 0.42 mM
SMILES: O=P(O)(O)O [Pi]
